Key:
Assay type in all cases: cell-based, human
[1] = tested on: RTP/Drg1 protein; assay: Western blot of RTP/Drg1 protein in MDA-MB-231 cells; conditions: for reduction in RTP/Drg1 protein levels (hypoxic up-regulation), densitometry: 1% oxygen + 30% CO, 24 h; for effect of CO on up-regulation of RTP/Drg1 protein induced by cobalt chloride, Tiron and DFO: hypoxic conditions with CO; for levels of RTP/Drg1 protein: 20% oxygen, up to 72 h, 100 μM cobalt chloride, 30 mM Tiron or 100 μM DFO
Procedure: (§1) To determine whether hypoxia regulates the expression of certain genes (e.g., PAI-1, uPAR, RTP/Drg1) via an iron-containing heme protein, cells were cultured for up to 72 h at 20% oxygen in the presence or absence of either 100 μM cobalt chloride, or 30 mM sodium 4,5-dihydroxybenzene-1,3-disulfonate (Tiron), or 100 μM desferrioxamine mesylate (DFO) (Sigma Chemical CO., St. Louis, Mo.). Further confirmation of the role of a heme protein in hypoxic responses can be achieved by culturing cells under hypoxia in the presence of carbon monoxide, which maintains the heme protein in the oxy state and thereby blocks heme protein-mediated hypoxic responses. Thus, cells were also cultured for 24 h at 37° C. under hypoxic conditions in the presence of 30% carbon monoxide.
Western Blot Analysis. To examine levels of RTP/Drg1 protein, cells were lysed with buffer containing 40 mM HEPES pH 7.2, 100 mM NaCl, 20% glycerol, 0.1 mM EDTA pH 8.0, 0.2% Triton X-100 (polyoxyethylene (10) isooctylphenyl ether), 1 mM DTT, and 2 mM PMSF, and centrifuged briefly at 4° C. The supernatants were collected and stored at −80° C. until use. SDS-PAGE was performed and resolved proteins were transferred to Immobilon-P membranes (Millipore Corp., Bedford, Mass.) using a semi-dry transfer cell (Bio-Rad Laboratories, Mississauga, ON). Membranes were blocked by incubation overnight at 4° C. in a PBS-buffered solution containing 0.01% Tween 20 (polyoxyethylene(20) sorbitan monolaurate) (PBS-T) and 5% casein. The blots were then incubated with polyclonal rabbit anti-Drg1 antiserum followed by incubation with a peroxidase labeled goat anti-rabbit IgG secondary antibody (Vector Lab. Inc., Burlingame, Calif.). Antigen was detected by enhanced chemiluminescence (ECL, Amersham Canada Inc., Oakville, ON) and exposure of the membrane onto Dupont Reflection NEF film (Dupont Canada, Inc., Mississauga ON).

[2] = tested on: uPAR mRNA; assay: Northern blot of uPAR mRNA in HTR-8/SVneo cells; conditions: 24 h
Procedure: as §1, with “Thus, cells were also cultured for 24 h at 37° C. under hypoxic conditions in the presence of 30% carbon monoxide.” left out
Northern Blot Analysis. Total RNA was isolated from cell lines as described above. […] RNA was transferred to nylon membranes (Micron Separations, Inc., Westboro, Mass.). […] The hybridization solution contained 6×SSC, 0.5% SDS, 100 μg/mL denatured salmon sperm DNA, 50% formamide and cDNA probe. After hybridization, the membranes were washed with 2×SSC and 0.5% SDS at room temperature for 15 min, 2×SSC and 0.1% SDS at room temperature for 15 min, and 0.1×SSC and 0.5% SDS for 30 min. Dupont Reflection NEF film (Dupont Canada, Inc., Mississauga, ON) was exposed to the membranes for 1-3 days at −80° C. Bands on radiographic film were analyzed using a SigmaGel gel analysis software package (Jandel Scientific Software, San Rafael, Calif.).

[3] = tested on: uPAR; assay: uPAR expression by flow cytometry (mAb 3937) on HTR-8/SVneo cells; conditions: for effect on the inhibition by carbon monoxide of hypoxia-induced uPAR expression: compound in the medium, hypoxia + CO, two independent experiments
Procedure: as §1
Determination of uPAR expression by flow cytometry. For flow cytometry, cells were released from flasks by incubation in cold PBS containing 5 mM EDTA. One million cells were then incubated for 1 h, at 4° C., with either 10 μg/ml of mAb 3937, or control mouse IgG2a, used at the same concentration. Bound antibody was detected using FITC-conjugated goat anti-mouse immunoglobulin. Cells were then fixed with 2% paraformaldehyde in PBS prior to analysis using a Coulter Elite Flow Cytometer.

[4] = tested on: HTR-8/SVneo cells; assay: In vitro invasion of HTR-8/SVneo cells through Matrigel; conditions: for Invasion Index (%) ± SE: standard = 100; for increase in invasion: 20% oxygen, 100 μM cobalt chloride or 30 mM Tiron
Procedure: In vitro invasion assay. An assay which employs reconstituted basement membrane (Matrigel; Collaborative Biomedical Products, Bedford, Mass.) as the substrate for invasion was used to determine the effect of hypoxia on the invasiveness of tumor cells. Costar Transwell inserts (6.5 mm diameter polycarbonate membrane, 8 μm pore; Corning Costar Corp., Cambridge, Mass.) were coated with 100 μl of a 1 mg/ml solution of Matrigel diluted in cold serum-free culture medium, placed in the wells of a 24-well tissue culture plate and allowed to air-dry for 12 h in a laminar flow cabinet. After reconstituting the Matrigel by incubating for 1 h with 100 μl of serum-free medium, 5.0×10^4 cells in 100 μl aliquots of serum-containing medium were added to the Transwells. […] Cells which invaded through the Matrigel and the pores of the underlying membrane were fixed for 10 min in Carnoy's fixative (25% acetic acid, 75% methanol) and stained for 3 h in 1% toluidine blue, 1% sodium borate. Following several washes in tap water, the membranes were removed with a small scalpel blade, placed on a microscope slide and coverslipped. The invasion index' was then determined by counting, under a microscope, the total number of stained cells in the underside of the polycarbonate membranes.
Alternatively, cells (e.g., HTR-8/SVneo, MDA-MB-231) were labeled by incubation for 24 h in the presence of 10 μCi/ml [^3H]-thymidine. The cells were then harvested, adjusted to a concentration of 5.0×10^5/ml, and 100 μl aliquots added in triplicate to the upper wells of the invasion chambers. After a 24-h incubation, cells in the upper and lower compartments of the chambers were harvested. The invasion index, reflecting the percentage of added cells which had invaded the Matrigel was determined by measurement of the radioactivity in the upper and lower compartments, as well as in the membrane.

[5] = standard (20% O2) conditions with compound

SMILES	reduction in RTP/Drg1 protein levels (hypoxic up-regulation), densitometry [1]	reduction in RTP/Drg1 protein levels (hypoxic up-regulation), densitometry ([1]; listed as CO) [%]	effect of CO on up-regulation of RTP/Drg1 protein induced by cobalt chloride, Tiron and DFO [1]	effect of CO on up-regulation of RTP/Drg1 protein induced by cobalt chloride, Tiron and DFO ([1]; listed as CO)	reduction of hypoxia-mediated increase in uPAR mRNA ([2]; 1% O2 + 20% carbon monoxide) [%]	increase in uPAR mRNA vs standard conditions alone ([2]; hypoxic (1% O2) conditions in the presence of 20% carbon monoxide) [fold]	inhibition of hypoxia-induced expression of uPAR ([3]; 1% O2 + 20% carbon monoxide, 24 h, flow cytometry) [%]	inhibition of hypoxia-stimulated invasion ([4]; 1% oxygen + 20% carbon monoxide) [%]	Invasion Index (%) ± SE ([4]; Hypoxia (1% O2) + 20% CO) [%]	levels of RTP/Drg1 protein [1]	increase in uPAR mRNA vs standard conditions alone [2, 5] [fold]	effect on the inhibition by carbon monoxide of hypoxia-induced uPAR expression [3]	increase in invasion [4] [%]	Invasion Index (%) ± SE ([4]; Standard (20% O2) + compound) [%]
[C-]#[O+] [carbon monoxide]	abrogated	57	did not inhibit	unable to inhibit	35	1.8	56	87	104.0 ± 8.5					
[Cl][Co][Cl] [cobalt chloride]										time-dependent increases in RTP/Drg1 protein	3.5	completely prevented	24.6±8.4	124.6 ± 8.4
O=S(=O)([O-])c1cc(O)c(O)c(S(=O)(=O)[O-])c1.[Na+].[Na+] [Tiron, sodium 4,5-dihydroxybenzene-1,3-disulfonate]										time-dependent increases in RTP/Drg1 protein	> 10	completely prevented	29.3±12.7	129.3 ± 12.7

From US6376169B1, “Method for diagnosing a vascular condition” (Queens University at Kingston, priority 1998, dated 2002)
